Measured values reported in US20260334464A1, “INCREASED PALATABILITY OF INSECTICIDAL INSECT BAITS” (BIO LOGIC CROP SCIENCE S.L., priority 2023, published 2026).

Columns and labels:
Format in all cases: in vivo
insects [1] = experiment: Increase in palatability of baits, general statement; conditions: for comparison of activity of D and L isomers: D-cycloserine, L-cycloserine or mixtures in any ratio; for effect on palatability of baits (in words): general statement
insects [2] = experiment: Insecticidal efficacy / mortality of baits, general statement; conditions: for time to elimination of the insects (delayed mortality): cycloserine exclusively as active ingredient in bait; for difference in kill or duration between D-, L-cycloserine and mixtures: more detailed trials
Procedure: On the other hand, in addition to the effect of increased palatability, the effect on mortality of compositions containing D-cycloserine, L-cycloserine and DL-cycloserine was investigated.
At this point, we encounter the unexpected situation, not observed in previous trials because it is not usual to determine death within a short time after exposure to the bait (e.g. from a few minutes to a maximum of 24 hours), that baits containing cycloserine exclusively as active ingredient (that is, in a conceptual simplification, water, sugar and cycloserine, or even water with cycloserine), both D-cycloserine and L-cycloserine or their mixtures in any ratio, present delayed mortality, reaching the elimination of the insects they have eaten in up to 7 days.

ants = experiment: Example 1 baits with serine, increase in palatability vs control (results not shown); conditions: serine instead of cycloserine, or combinations
Procedure: (§1) Ants: The tests are conducted in transparent plastic boxes covered on top with a mixture of ethanol and talcum powder (talcol) which prevents ants from fleeing. A drop of bait is placed on a holder, and the holder is placed with 10-30 ants and the behaviour of the ants is observed.
(§2) The number of ants eating bait is counted every minute until 10′ and every 5 minutes until 30′. The boxes with ants are kept with the sample, with a source of humidity and alternative food to observe mortality at 24 hours and 48 hours.
On the other hand (results not shown), when serine is used instead of cycloserine in the bait, an increase in palatability is also observed, although somewhat lower, around 1.5-1.7 times compared to the control, and when serine, cycloserine and phloxine B, or serine and phloxine B are combined, this increase is 1.7-1-8 times compared to the control, with no appreciable differences between these last two combinations.

Periplaneta america = experiment: Test 2A: palatability in terms of grams ingested (Example 2); conditions: cockroach test of Example 2
Excerpt: (§3) Cockroaches: The cockroach test protocol, which can be performed at any location with usual temperature and humidity conditions and with field- or insectary-raised cockroaches, consists of collecting cockroaches that are deprived of food for 7 days; on the day of the test, 4 females and 4 males (or the desired number, for individual measurements, only one individual) are placed in boxes in which the bait is placed in a known quantity and the number of visits to the bait is counted every certain time, optionally the quantity ingested every hour or certain minutes is determined by differential weighing. In examples where mortality is considered, the number of individuals turned over per hour (or other defined time) is observed. The bait is removed and replaced with a standard bait-such as pelleted dog food and a water source, such as moistened cotton wool- and daily mortality is monitored for one week.
A similar test was performed with Periplaneta america, Blattella germanica and Blatta orientialis cockroaches, as detailed below for the first species. In this case, it was possible to evaluate the amount of bait ingested per individual, with the formulas of this example corresponding to those of Example 1, but replacing the 20% fructose in all of them by 20% commercial hazelnut cream, so that we have the formulations C.2.1, P.2.1, P.2.2, P.2.3 with that change only.

Lasius niger [3] = experiment: Palatability of imidacloprid ant bait (Example 3); conditions: 0.01 wt. % imidacloprid in bait
Procedure: as §1, §2
To test the combination effect of cycloserine and/or phloxine with known insecticides used in baits, we used an ant bait-type composition and its equivalents of Example 1, but containing 0.01 wt. % of the insecticide imidacloprid. Serine was also tested in parallel instead of cycloserine.
The bait is offered to them, in boxes containing 10 Lasius niger ants each, for 3 hours, during which time palatability is observed.

cockroach = experiment: Transfer of lethal effect by cannibalism; conditions: cockroach offered a cycloserine-treated cockroach
Excerpt: This circumstance, in addition to the use of cycloserine to increase the palatability of the baits, means that cycloserine can be used as an insecticide and also with an infrequent, or even unknown, particularity in pest control, i.e. the treated insects die in extraordinarily (relatively) long times of up to 7 days. This, which in principle may seem a disadvantage, is not so in certain cases, since it allows the ants to have more time to live functionally well, without external signs of intoxication that could warn other ants, and to transmit the bait by tropholaxy to the queen ant (or queen ants of the same anthill, when this is the case) and thus more effectively destroy the anthill. Similarly, the alertness (if any) of conspecifics to a dead cockroach near the bait is suppressed. […] Similarly, for long-term pest control, immediacy is not an insurmountable requirement, so it is also applicable in mosquito control to prevent disease transmission or pest control in agriculture.

Lasius niger [4] = experiment: Insecticidal efficacy of bait; conditions: according to our experience
Procedure: as §1, §2

Linepithema humile = experiment: Insecticidal efficacy of bait; conditions: according to our experience
Procedure: as §1, §2

Blatta orientalis = experiment: Insecticidal efficacy of bait; conditions: according to our experience
Excerpt: as §3

Blattella germanica = experiment: Insecticidal efficacy of bait; conditions: according to our experience
Excerpt: as §3

Periplaneta americana = experiment: Insecticidal efficacy of bait; conditions: according to our experience
Excerpt: as §3

Aedes aegypti = experiment: Insecticidal efficacy of bait; conditions: according to our experience
Procedure: (§4) Mosquitoes: Bait is added at 10% in water used by mosquitoes for drinking, placed in ordinary breeding nets, 10×10×10 cm^3, ad libitum.
(§5) In the case of mosquito tests, the bait is given ad libitum to 50 specimens in 10 cm×10 cm×10 cm^3 cloth cages, using cotton wool impregnated with the baits mentioned above, but with a sugar mix content of only 10%, the rest being compensated by adding more water to the formula, so that it is liquid enough to be absorbed by the mosquitoes.

Aedes albopictus = experiment: Insecticidal efficacy of bait; conditions: according to our experience
Procedure: as §4, §5

Culex pipiens = experiment: Insecticidal efficacy of bait; conditions: according to our experience
Procedure: as §4, §5

Anopheles gambiae = experiment: Insecticidal efficacy of bait; conditions: according to our experience
Procedure: as §4

Culex quinquefasciatus = experiment: Insecticidal efficacy of bait; conditions: according to our experience
Procedure: as §4

Ceratitis capitata = experiment: Insecticidal efficacy of bait; conditions: according to our experience
Procedure: (§6) Flies: Bait is added at 10% in water used by the flies for drinking, placed in 10×10×10 cm^3 ordinary breeding nets, ad libitum.
(§7) Similarly, tests have been carried out with […] with house flies (Musca domestica) and with Mediterranean flies (Ceratitis capitata).

Musca domestica = experiment: Insecticidal efficacy of bait; conditions: according to our experience
Procedure: as §6, §7

Simuliidae ssp. = experiment: Insecticidal efficacy of bait; conditions: according to our experience
Bactrocera oleae = experiment: Insecticidal efficacy of bait; conditions: according to our experience
Bactrocera cucurbitae = experiment: Insecticidal efficacy of bait; conditions: according to our experience

N[C@H]1CONC1=O [L-cycloserine]
comparison of activity of D and L isomers (insects [1]): we have not seen an activity of one isomer greater than the other
time to elimination of the insects (delayed mortality) (insects [2]): up to 7 days
difference in kill or duration between D-, L-cycloserine and mixtures (insects [2]): no significant difference in kill or duration

O=C([O-])c1c(Cl)c(Cl)c(Cl)c(Cl)c1-c1c2cc(Br)c(=O)c(Br)c-2oc2c(Br)c([O-])c(Br)cc12.[Na+].[Na+] [phloxine B]
effect on palatability of baits (in words) (insects [1]): shown to increase the palatability of baits

N[C@@H]1CONC1=O [D-cycloserine]
comparison of activity of D and L isomers (insects [1]): we have not seen an activity of one isomer greater than the other
time to elimination of the insects (delayed mortality) (insects [2]): up to 7 days
difference in kill or duration between D-, L-cycloserine and mixtures (insects [2]): no significant difference in kill or duration

N[C@@H](CO)C(=O)O [serine]
increase in palatability compared to the control (ants): 1.5-1.7 times
effect on palatability (in words) (Periplaneta america): increases palatability, but to a lesser extent than cycloserine
effect on palatability of baits (in words) (insects [1]): shown to increase the palatability of baits

O=[N+]([O-])NC1=NCCN1Cc1ccc(Cl)nc1 [imidacloprid]
bait rejection (Lasius niger [3]): does not cause bait rejection

N[C@@H]1CON=C1O [cycloserine]
effect on palatability (in words) (Periplaneta america): more pronounced
comparison of activity of D and L isomers (insects [1]): activity we have observed to be the same
effect on palatability of baits (in words) (insects [1]): shown to increase the palatability of baits
time to elimination of the insects (delayed mortality) (insects [2]): up to 7 days
transfer of lethal effect to another cockroach (cockroach): lethal effect of cycloserine on one cockroach is transferred to another cockroach
efficacy as an insecticide (Lasius niger [4]): great efficacy
efficacy as an insecticide (Linepithema humile): great efficacy
efficacy as an insecticide (Blatta orientalis): great efficacy
efficacy as an insecticide (Blattella germanica): great efficacy
efficacy as an insecticide (Periplaneta americana): great efficacy
efficacy as an insecticide (Aedes aegypti): great efficacy
efficacy as an insecticide (Aedes albopictus): great efficacy
efficacy as an insecticide (Culex pipiens): great efficacy
efficacy as an insecticide (Anopheles gambiae): great efficacy
efficacy as an insecticide (Culex quinquefasciatus): great efficacy
efficacy as an insecticide (Ceratitis capitata): great efficacy
efficacy as an insecticide (Musca domestica): great efficacy
efficacy as an insecticide (Simuliidae ssp.): great efficacy
efficacy as an insecticide (Bactrocera oleae): great efficacy
efficacy as an insecticide (Bactrocera cucurbitae): great efficacy
